Holding throughout (assay): Antimicrobial effectiveness on inoculated broccoli, 5 minute soak
Holding throughout (assay type): cell-based

One assay concerns Staph aureus. To be noted: 5 g/L. On the procedure: (§1) Concentrated powdered compositions E and F are prepared and dissolved in deionized and hard water (10 gpg) at a level of 5 grams of composition per Liter of water to form a dilute aqueous treatment composition. The dilute aqueous treatment compositions are then tested on broccoli samples for antimicrobial effectiveness.
(§2) A Broccoli sample is innoculated with a bacterial solution containing ≧10^8 cfu bacterium per ml. Application of 100 microliters of this solution to the surface results in approximately 10^6 to 10^7 cfu per broccoli piece. Equal amounts of small spots are deposited to facilitate drying. After 30 minutes dry time the sample is placed in 50 ml of the dilute aqueous treatment composition for a 5 minute soak. After the 5 minute soak the sample is transferred to 50 ml of a neutralizer before being stomached for 2 minutes and subsequently plated to enumerate the organisms surviving the treatments. Suprisingly the acid-anionic system maintained equal or better antimicrobial activity vs. 200 ppm hypochlorite bleach over the range from 0 to 10 gpg, as shown by the data in the following Tables.

In a further assay the test system is E-Coli. The note with it: 5 g/L. On the procedure:
as §1, §2

Another assay has as its system Salmonella. The note with it: 0 gpg water. On the procedure:
as §1, §2
(§3) Composition E is further tested on Salmonella and Listeria on broccoli with similar results.

The test system of the next assay is Listeria. To be noted: 0 gpg water. On the procedure: as §1, §2, §3

Structures are written as SMILES.

One compound from patent US20010046979A1, “Acidic antimicrobial compositions for treating food and food contact surfaces and methods of use thereof” (priority 2000, published 2001) can be followed below.

Regarding `[Na+].[O-]Cl` [200 ppm NaOCl, NaOCl], the “Log Reduction (greater than water alone) in 5 minutes” value turned out to be 1.08 log in the assay on Staph aureus (0 gpg water); 0.89 log in the assay on Staph aureus (10 gpg water); 0.86 log in the assay on E-Coli (0 gpg water); 0.93 log in the assay with E-Coli (10 gpg water); 0.67 log with Salmonella; 0.77 log in the assay on Listeria. In addition, the “Log Reduction in 5 minutes” value is given as 1.5 log in the assay on Staph aureus (0 gpg water), 1.3 log with Staph aureus (10 gpg water), 1.2 log with E-Coli (0 gpg water) and 1.3 log in the assay with E-Coli (10 gpg water).
